Holding throughout (assay): AK assay 384-well format, Prestwick library screening
The test system of one assay is K. pneumoniae. The assay is classed as cell-based, Klebsiella pneumoniae. The settings on record: 50 μM final drug concentration; for fold induction at 50 µM: Klebsiella pneumoniae, 3 h.
The next assay relates to P. aeruginosa. The assay is classed as cell-based, Pseudomonas aeruginosa. The following applies: 50 μM final drug concentration; for fold induction at 50 µM: Pseudomonas aeruginosa, 3 h.
Assay [1] deals with A. baumannii strain 98-37-09. The assay is classed as cell-based, Acinetobacter baumannii. The following applies: 50 μM final drug concentration; for fold induction at 50 µM: Acinetobacter baumannii, 983709, 3 h.
The subject of another assay is E. faecium. The assay is classed as cell-based, Enterococcus faecium. The settings on record: 50 μM final drug concentration; for fold induction at 50 µM: Enterococcus faecium, 3 h.
A further assay deals with E. coli. The assay is classed as cell-based, Escherichia coli. The following applies: 50 μM final drug concentration; for fold induction at 50 µM: Escherichia coli, 3 h.
The next assay relates to E. cloacae. The assay is classed as cell-based, Enterobacter cloacae. The settings on record: 50 μM final drug concentration; for fold induction at 50 µM: Enterobacter cloacae, 3 h.
Assay [2] concerns S. aureus strain USA300-0114. The assay is classed as cell-based, Staphylococcus aureus. The settings on record: 50 μM final drug concentration; for fold induction at 50 µM: Staphylococcus aureus, USA300, 3 h.
Setting [3] is: planktonic K. pneumoniae, 384-well, cutoff for positive-scoring molecules 3-fold increase, read-out: AK-based Prestwick Library Screening Results: K. pneumoniae (increase in extracellular AK activity).
The mark [4] stands for this setting: planktonic P. aeruginosa, 384-well, cutoff for positive-scoring molecules 3-fold increase, read-out: AK-based Prestwick Library Screening Results: P. aeruginosa (increase in extracellular AK activity).
Where [5] appears, read: planktonic A. baumannii, 384-well, cutoff for positive-scoring molecules 3-fold increase, read-out: AK-based Prestwick Library Screening Results: A. baumannii (increase in extracellular AK activity).
Where [6] appears, read: planktonic E. faecium, 384-well, cutoff for positive-scoring molecules 3-fold increase, read-out: AK-based Prestwick Library Screening Results: E. faecium (increase in extracellular AK activity).
Setting [7] is: planktonic E. cloacae, 384-well, cutoff for positive-scoring molecules 3-fold increase, read-out: AK-based Prestwick Library Screening Results: E. cloacae (increase in extracellular AK activity).
The mark [8] stands for this setting: planktonic S. aureus, 384-well, cutoff for positive-scoring molecules 3-fold increase, read-out: AK-based Prestwick Library Screening Results: S. aureus (increase in extracellular AK activity).
[9] abbreviates: planktonic, cutoff for positive-scoring molecules 3-fold increase, read-out: AK-based Prestwick Library Screening Results, K. pneumoniae (fold increase in extracellular AK activity).
Where [10] appears, read: planktonic, cutoff for positive-scoring molecules 3-fold increase, read-out: AK-based Prestwick Library Screening Results, P. aeruginosa (fold increase in extracellular AK activity).
[11] abbreviates: planktonic, cutoff for positive-scoring molecules 3-fold increase, read-out: AK-based Prestwick Library Screening Results, A. baumannii (fold increase in extracellular AK activity).
Where [12] appears, read: planktonic, cutoff for positive-scoring molecules 3-fold increase, read-out: AK-based Prestwick Library Screening Results, E. faecium (fold increase in extracellular AK activity).
Where [13] appears, read: planktonic, cutoff for positive-scoring molecules 3-fold increase, read-out: AK-based Prestwick Library Screening Results, E. coli (fold increase in extracellular AK activity).
The mark [14] stands for this setting: planktonic, cutoff for positive-scoring molecules 3-fold increase, read-out: AK-based Prestwick Library Screening Results, E. cloacae (fold increase in extracellular AK activity).
Setting [15] is: planktonic, cutoff for positive-scoring molecules 3-fold increase, read-out: AK-based Prestwick Library Screening Results, S. aureus (fold increase in extracellular AK activity).
[16] abbreviates: cutoff for positive-scoring molecules 3-fold increase.
Setting [17] is: planktonic, cutoff for positive 3-fold increase.

Like-named read-outs stand apart in the source and are kept apart here.

The record followed here is US10004701B2, “Methods and compositions for treating infection” (UNIVERSITY OF ROCHESTER, priority 2012, dated 2018).

For the molecule `CC(=O)O[C@H]1C(=O)[C@@]2(C)[C@H]([C@H](OC(=O)c3ccccc3)[C@]3(O)C[C@H](OC(=O)[C@H](O)[C@@H](NC(=O)c4ccccc4)c4ccccc4)C(C)=C1C3(C)C)[C@]1(OC(C)=O)CO[C@@H]1C[C@@H]2O` [Paclitaxel], the fold induction at 50 µM with K. pneumoniae (setting [3]) was found to be 1; in the assay with P. aeruginosa (setting [4]) it was 1; in assay [1] (setting [5]) it was 1.3; with E. faecium (setting [6]) it was 1; in the assay on E. coli (planktonic E. coli, 384-well, […], read-out: AK-based Prestwick Library Screening Results: E. coli (increase in extracellular AK activity)) it was 1.1; with E. cloacae (setting [7]), 1.6. In addition, in assay [2] (setting [8]), the fold induction at 50 µM amounted to 1.
Consider `CC1(C)OC(=O)NC1=O` [Dimethadione], for which the fold induction at 50 µM in the assay with K. pneumoniae (setting [9]) was 0.8; in the assay with P. aeruginosa (setting [10]), 0.8; in assay [1] (setting [11]), 0.8; in the assay on E. faecium (setting [12]), 0.9; in the assay with E. coli (setting [13]), 0.9; with E. cloacae (setting [14]) it was 1. The fold induction at 50 µM in assay [2] (setting [15]) came to 0.7.
For `CCN(CC)C(=S)SSC(=S)N(CC)CC` [Disulfiram], the fold induction at 50 µM turned out to be 0.6 with K. pneumoniae (384-well format, […], read-out: AK-based Prestwick Library Screening Results, K. pneumoniae (increase in extracellular AK activity)); 0.6 with P. aeruginosa (384-well format, […], read-out: AK-based Prestwick Library Screening Results, P. aeruginosa (increase in extracellular AK activity)); 1 in assay [1] (384-well format, […], read-out: AK-based Prestwick Library Screening Results, A. baumannii (increase in extracellular AK activity)); 1 with E. faecium (384-well format, […], read-out: AK-based Prestwick Library Screening Results, E. faecium (increase in extracellular AK activity)); 0.9 in the assay on E. coli (384-well format, […], read-out: AK-based Prestwick Library Screening Results, E. coli (increase in extracellular AK activity)); 0.7 in the assay with E. cloacae (384-well format, […], read-out: AK-based Prestwick Library Screening Results, E. cloacae (increase in extracellular AK activity)). Besides, the fold induction at 50 µM in assay [2] (384-well format, […], read-out: AK-based Prestwick Library Screening Results, S. aureus (increase in extracellular AK activity)) is 1.1.
For `C[N+](C)(CCOc1ccccc1)Cc1ccccc1.O=C([O-])c1cc2ccccc2cc1O` [Bephenium hydroxynaphthoate], in the assay with K. pneumoniae (setting [16]), the “AK-based Prestwick Library Screening Results, K. pneumoniae (fold increase in extracellular AK activity)” value came to 1.0. Further, the “AK-based Prestwick Library Screening Results, P. aeruginosa (fold increase in extracellular AK activity)” value in the assay with P. aeruginosa (setting [16]) was determined as 1.0. For the same molecule, in assay [1] (setting [16]), the “AK-based Prestwick Library Screening Results, A. baumannii (fold increase in extracellular AK activity)” value is 0.9. In addition, the “AK-based Prestwick Library Screening Results, E. faecium (fold increase in extracellular AK activity)” value in the assay on E. faecium (setting [16]) was 1.0. The “AK-based Prestwick Library Screening Results, E. coli (fold increase in extracellular AK activity)” value in the assay on E. coli (setting [16]) came out at 1.2. Besides, the “AK-based Prestwick Library Screening Results, E. cloacae (fold increase in extracellular AK activity)” value in the assay on E. cloacae (setting [16]) was found to be 2.0. The “AK-based Prestwick Library Screening Results, S. aureus (fold increase in extracellular AK activity)” value in assay [2] (setting [16]) was found to be 1.2.
For `C=C[C@H]1CN2CC[C@H]1C[C@H]2[C@H](O)c1ccnc2ccccc12` [(−)-Cinchonidine], the “AK-based Prestwick Library Screening Results, K. pneumoniae (fold increase in extracellular AK activity)” value in the assay with K. pneumoniae (setting [17]) turned out to be 0.8. Moreover, in the assay on P. aeruginosa (setting [17]), the “AK-based Prestwick Library Screening Results, P. aeruginosa (fold increase in extracellular AK activity)” value was 1.1. Besides, in assay [1] (setting [17]), the “AK-based Prestwick Library Screening Results, A. baumannii (fold increase in extracellular AK activity)” value turned out to be 1.1. Further, the “AK-based Prestwick Library Screening Results, E. faecium (fold increase in extracellular AK activity)” value with E. faecium (setting [17]) was 1.0. Besides, the “AK-based Prestwick Library Screening Results, E. coli (fold increase in extracellular AK activity)” value in the assay with E. coli (setting [17]) was 1.3. Besides, the “AK-based Prestwick Library Screening Results, E. cloacae (fold increase in extracellular AK activity)” value with E. cloacae (setting [17]) amounted to 1.6. The “AK-based Prestwick Library Screening Results, S. aureus (fold increase in extracellular AK activity)” value in assay [2] (setting [17]) amounted to 0.9.
In the case of `CCC(Cc1c(I)cc(I)c(N)c1I)C(=O)O` (stereo not drawn) [Iopanoic acid], the fold induction at 50 µM was 0.6 in the assay on K. pneumoniae (cutoff for positive-scoring molecules 3-fold increase, read-out: AK-based Prestwick Library Screening Results, K. pneumoniae (fold increase in extracellular AK activity)); 0.6 with P. aeruginosa (cutoff for positive-scoring molecules 3-fold increase, read-out: AK-based Prestwick Library Screening Results, P. aeruginosa (fold increase in extracellular AK activity)); 0.6 in assay [1] (cutoff for positive-scoring molecules 3-fold increase, read-out: AK-based Prestwick Library Screening Results, A. baumannii (fold increase in extracellular AK activity)); 0.9 in the assay on E. faecium (cutoff for positive-scoring molecules 3-fold increase, read-out: AK-based Prestwick Library Screening Results, E. faecium (fold increase in extracellular AK activity)); 0.6 with E. coli (cutoff for positive-scoring molecules 3-fold increase, read-out: AK-based Prestwick Library Screening Results, E. coli (fold increase in extracellular AK activity)); 9.6 in the assay on E. cloacae (cutoff for positive-scoring molecules 3-fold increase, read-out: AK-based Prestwick Library Screening Results, E. cloacae (fold increase in extracellular AK activity)). Further, the fold induction at 50 µM in assay [2] (cutoff for positive-scoring molecules 3-fold increase, read-out: AK-based Prestwick Library Screening Results, S. aureus (fold increase in extracellular AK activity)) was 0.4.
Take `C[N+]1(C)CCCC(OC(=O)C(O)(c2ccccc2)c2ccccc2)C1` (stereo not drawn) [Mepenzolate bromide]: the fold induction at 50 µM in the assay on K. pneumoniae (setting [9]) came out at 0.6; with P. aeruginosa (setting [10]) it was 0.6; in assay [1] (setting [11]) it was 0.7; with E. faecium (setting [12]), 1; with E. coli (setting [13]), 0.6; with E. cloacae (setting [14]), 0.7. Besides, the fold induction at 50 µM in assay [2] (setting [15]) came to 0.6.
Turning to `CC(=O)Nc1c(I)c(C(=O)N[C@H]2C(O)O[C@H](CO)[C@@H](O)[C@@H]2O)c(I)c(N(C)C(C)=O)c1I` (stereo partly drawn) [Metrizamide], the fold induction at 50 µM with K. pneumoniae (planktonic, cutoff for positive 3-fold increase, read-out: AK-based Prestwick Library Screening Results, K. pneumoniae (fold increase in extracellular AK activity)) stood at 1; in the assay on P. aeruginosa (planktonic, cutoff for positive 3-fold increase, read-out: AK-based Prestwick Library Screening Results, P. aeruginosa (fold increase in extracellular AK activity)), 1.2; in assay [1] (planktonic, cutoff for positive 3-fold increase, read-out: AK-based Prestwick Library Screening Results, A. baumannii (fold increase in extracellular AK activity)), 1.3; with E. faecium (planktonic, cutoff for positive 3-fold increase, read-out: AK-based Prestwick Library Screening Results, E. faecium (fold increase in extracellular AK activity)) it was 1; in the assay on E. coli (planktonic, cutoff for positive 3-fold increase, read-out: AK-based Prestwick Library Screening Results, E. coli (fold increase in extracellular AK activity)), 1.2; in the assay on E. cloacae (planktonic, cutoff for positive 3-fold increase, read-out: AK-based Prestwick Library Screening Results, E. cloacae (fold increase in extracellular AK activity)), 1.3. In assay [2] (planktonic, cutoff for positive 3-fold increase, read-out: AK-based Prestwick Library Screening Results, S. aureus (fold increase in extracellular AK activity)), the fold induction at 50 µM was 1.2.
For `Cc1ccc(Cl)c(Nc2ccccc2C(=O)O)c1Cl`, the fold induction at 50 µM in the assay on K. pneumoniae (setting [3]) amounted to 1; with P. aeruginosa (setting [4]), 1.2; in assay [1] (setting [5]) it was 1.2; with E. faecium (setting [6]) it was 1.2; with E. coli (planktonic E. coli, 384-well, cutoff for positive-scoring molecules 3-fold increase, read-out: AK-based Prestwick Library Screening Results: E. coli (increase in extracellular AK activity)), 1.1; with E. cloacae (setting [7]), 1.4. Besides, the fold induction at 50 µM in assay [2] (setting [8]) was 0.6.
